# In article PMC5591945, “Novel Protein-Protein Inhibitor Based Approach to Control Plant Ethylene Responses: Synthetic Peptides for Ripening Control” (Frontiers in Plant Science, 2017):
# T1: tomato ethylene receptor NR (NeverRipe) (tomato (Solanum lycopersicum), UniProt Q41341 1-635, labeled with Alexa Fluor 488-Maleimide)
# T1 construct: Tomato ethylene receptor NR (NeverRipe), full-length codon optimized cDNA in pET16b; pET16b normally adds the deca-histidine tag and a factor Xa site at the N-terminus (surmised); Kept in 0.015% FosCholine-16; source: E. coli BL21 (DE3), solubilized with FosCholine-16, purified (HisTrap FF / Ni-NTA)
# T1 sequence (looked up): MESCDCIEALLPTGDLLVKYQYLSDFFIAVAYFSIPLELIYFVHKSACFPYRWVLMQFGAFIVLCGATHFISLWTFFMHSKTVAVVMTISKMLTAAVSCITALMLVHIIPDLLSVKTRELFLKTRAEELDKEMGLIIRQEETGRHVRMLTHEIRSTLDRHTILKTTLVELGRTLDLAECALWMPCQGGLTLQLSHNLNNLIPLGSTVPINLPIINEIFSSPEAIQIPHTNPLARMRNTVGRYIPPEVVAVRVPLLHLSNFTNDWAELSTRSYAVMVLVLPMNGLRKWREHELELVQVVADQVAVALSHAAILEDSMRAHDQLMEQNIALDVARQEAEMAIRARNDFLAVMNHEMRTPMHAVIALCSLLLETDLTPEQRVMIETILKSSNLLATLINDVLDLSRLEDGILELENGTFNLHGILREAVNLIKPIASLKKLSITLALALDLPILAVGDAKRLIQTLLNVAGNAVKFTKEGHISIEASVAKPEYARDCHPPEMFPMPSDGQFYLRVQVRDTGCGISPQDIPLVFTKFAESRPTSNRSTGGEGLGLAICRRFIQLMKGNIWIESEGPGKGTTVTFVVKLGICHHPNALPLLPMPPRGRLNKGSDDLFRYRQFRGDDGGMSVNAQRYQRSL
# B1: NOP-1 octapeptide (peptide)
# peptide: LKRYKRRL
# notes: Used unlabeled in MST; also called NLS-derived peptide; source: synthetic peptide (GenScript)
# Assays:
# tomato fruits = settings: 2007, cited from earlier work; for ripening, lycopene synthesis and chlorophyll breakdown: AVG inhibits ethylene biosynthesis, 1-MCP inhibits ethylene response, ref Saltveit, 2005, Passam et al.; for drawbacks on fruit quality and maturation: in some cases, ref Passam et al.
# Source text: Improving shelf life and nutritional quality of tomato fruits is difficult to achieve with the methods currently in use. Maintaining adequate storage conditions is expensive and might cause chilling injury if used improperly ([[…] et al., 2007]). Even though genetic modifications reducing gene expression of proteins involved in ethylene synthesis are possible in principle ([Abano and Buah, 2015]) these procedures are banned by law throughout Europe and have low acceptance among European consumers. Chemical methods such as application of AVG to inhibit ethylene biosynthesis or treatment with ...
# [1] = tested on: Tomato fruits (Solanum lycopersicum L.) of the cultivar ‘Lyterno’; settings: in vivo
# Source text: Tomato fruits (Solanum lycopersicum L.) of the cultivar ‘Lyterno’ (Rijk Zwaan, De Lier, Netherlands) were harvested at the maturity stage “green” (USDA; 2005) from tomato plants which where cultivated in a commercial-like greenhouse at the research station Campus Klein-Altendorf (University of Bonn, Germany). At the early development stages, the trusses were manually thinned to six fruits per truss, according to the common practice aiming standardized fruit size and quality. For the experiment, the last two fruits of the fourth truss, counted from the bottom, were chosen for evaluations. At the beginning of the experiment, […] showing similar color and size were divided into four treatments (n = 25 fruits per treatment). On each fruit, a transparent polyethylene film was placed at the equatorial zone to demark the four evaluation points of 2.8 cm diameter each.
# The four treatments were as follows: (1) control; (2) NOP-1, 400 μM; (3) NOP-1, 1000 μM; (4) NOP-1, 2000 μM. The NOP-1 peptide (GenScript, Piscataway, NJ, United States) was dissolved in 5 ml deionized water. On each fruit, a total of 200 microdroplets (0.5 μL each) of the peptide solution were gently deposited (50 micro droplets on each marked area of the tomato fruit) with a Hamilton microdispenser (Hamilton Bonaduz AG, Bonaduz, Switzerland). […]
# [2] = target: tomato ethylene receptor LeETR4 (tomato (Solanum lycopersicum)) (UniProt Q9XET8); assay: MST; 100 nM receptor labeled with Alexa Fluor 488-Maleimide titrated with unlabeled NOP-1 (500 μM to 61.04 nM) in 50 mM Tris-HCl pH 8.0, 300 mM NaCl; Monolith NT.115, 20% MST power (LeETR4) or 60% (NR); triplicate; apparent Kd
# [3] = target: T1, tomato ethylene receptor NR (NeverRipe); assay: as above; settings: both partners purified
Molecule,"ripening, lycopene synthesis and chlorophyll breakdown (tomato fruits)",drawbacks on fruit quality and maturation (tomato fruits),effect on fruit quality [1],Kd [2] [µM],Kd [3] [µM]
"CC1=CC1 [1-MCP, 1-methylcyclopropene]",significantly delay ripening and slow down lycopene synthesis and chlorophyll breakdown,quality losses in taste development or to complete arrest in maturation,,,
"NCCO/C=C/[C@H](N)C(=O)O [AVG, aminoethoxyvinylglycine]",significantly delay ripening and slow down lycopene synthesis and chlorophyll breakdown,quality losses in taste development or to complete arrest in maturation,,,
CC(C)C[C@H](NC(=O)[C@H](CCCNC(=N)N)NC(=O)[C@H](CCCNC(=N)N)NC(=O)[C@H](CCCCN)NC(=O)[C@H](Cc1ccc(O)cc1)NC(=O)[C@H](CCCNC(=N)N)NC(=O)[C@H](CCCCN)NC(=O)[C@@H](N)CC(C)C)C(=O)O [NOP-1],,,no negative effects on fruit quality,,
B1,,,,4.15,23.5
